Assay results taken from patent US8648090B2, “Indole alkaloid derivatives having opioid receptor agonistic effect, and therapeutic compositions and methods relating to same” (National University Corporation Chiba University, priority 2007, dated 2014).
Read-outs that look alike come from different tables or passages of the source.

Columns and labels:
guinea pig ileum = assay: Twitch contraction induced by electrical stimulation in guinea pig isolated ileum (Magnus assay); conditions: for Emax / EC50: Cavia porcellus; for EC50: read-out: pD2 value (−log M) (converted); for Relative Potency (%): against morphine (100); for Inhibitory activity (%): maximum inhibition as percentage of that by morphine, intrinsic activity on opioid receptors; for pD2 value (−log M): negative logarithm of EC50, mean ± SEM of five or six animals; for Maximum inhibition (%): response at plateau, twitch contraction regarded as 100%
Description: The opioid agonistic effect was evaluated in an experiment involving twitch contraction induced by electrical stimulation of guinea pig ileum.
The guinea-pig ileum was dissected and placed in Krebs-Henseleit solution (in mM: NaCl, 112.08; KCl, 5.90; CaCl2, 1.97; MgCl2, 1.18; NaH2PO4, 1.22; NaHCO3, 25.00, and glucose, 11.49). The ileum was placed under 1 g tension in a 5 ml organ bath containing the nutrient solution. The bath was maintained at 37° C. and continuously bubbled with a mixture of 95% O2 and 5% CO2. Tissues were stimulated by a platinum needle-ring (the ring was placed 20 mm above the base of a 5 mm long needle) electrode. After equilibration, the ileum was transmurally stimulated with monophasic pulses (0.2 Hz and 0.1 ms duration) by a stimulator (SEN-7203, Nihon Kohden, Tokyo, Japan). Contractions were isotonically recorded by using a displacement transducer (NEC Type 45347, San-ei Instruments Ltd., Tokyo, Japan). The effects of drug treatments on the twitch contractions evoked by transmural stimulation elicited through the ring electrodes were examined. The height of the twitch response to transmural stimulation was measured before and after the drug challenge. The responses were expressed as % inhibition of the twitch response to the transmural stimulation before the drug challenge.
Male albino guinea pigs (Japan SLC) weighing 320-550 g were used. Animals were housed in a temperature-controlled room at 24° C. with lights on from 07:00-19:00 and had free access to food and water. The guinea-pig ileum was dissected and placed in Krebs-Henseleit solution (in mM: NaCl, 112.08; KCl, 5.90; CaCl2, 1.97; MgCl2, 1.18; NaH2PO4, 1.22; NaHCO3, 25.00, and glucose, 11.49). The ileum was set up under 1 g of tension in 5 mL of an organ bath containing the nutrient solution. The bath was maintained at 37° C. and continuously bubbled with a gas mixture of 95% O2 and 5% CO2. At the start of each experiment, the maximum response to acetylcholine (3 μM) was obtained for each tissue to check its suitability. Tissues were stimulated through platinum needle-ring (a ring was placed 20 mm above the base of a needle 5 mm in length) electrodes using square wave pulses of supramaximal voltage. The ileum was transmurally stimulated with monophasic pulses (0.2 Hz) at 0.3 ms duration by a stimulator (SEN-7203, Nihon Kohden, Tokyo, Japan). Contractions were isotonically recorded with a displacement transducer (NEC, San-ei Instruments Ltd., Type 45347), a DC strain amplifier (San-ei 6M92), and a DC recorder (Hitachi, Mod 056, Tokyo, Japan). All concentration-response curves were constructed in a cumulative manner. The height of the twitch response to transmural stimulation was measured before and after drug challenge. The twitch response remaining after each sample addition was determined by dividing the height after its addition by the height before addition multiplied by 100. To obtain the percentage inhibition, this value was subtracted from 100. […] To investigate the involvement of opioid receptors in the inhibitory effect of the samples, the antagonistic effect of the opioid receptor antagonist naloxone was examined. The inhibitory effects of samples on electrically stimulated contraction were regarded as opioid activities when the antagonistic effect of naloxone was observed.

mice [1] = assay: Tail-flick test, analgesic effect after oral administration; assay type: in vivo; conditions: for ED50: Mus musculus; for ED50 / ED50 analgesic effect (tail-flick): mice, (95% confidence limits); for times more potent analgesic effect than morphine: mouse tail-flick test
From the text: Analgesia was quantified using the percentage of maximum possible effect (% MPE) and calculated as: % MP=[(test latency−pre-drug latency)/(cut-off time−pre-drug latency)]×100. A cut-off time of 10 s was used to prevent tissue damage. Each value represents mean±S.E.M. of data obtained from 7 to 9 mice.
(§1) Mice respond to a focused heat stimulus by flicking or moving their tail from the path of the stimulus, thereby exposing a photocell located in the tail-flick analgesia meter (Ugo Basile Tail-flick Unit 7360, Ugo Basile, Comerio, Italy) immediately below the tail. The reaction time is automatically recorded. Prior to treatment with drugs, vehicle, or saline, the nociceptive threshold was measured three times, and the mean of the reaction time was used as the pre-drug latency for each mouse. A cut-off time of 10 s was used to prevent tissue damage. Analgesia was quantified using the percentage of maximum possible effect (% MPE) and calculated as: % MPE=[(test latency−pre-drug latency)/(cut-off time−pre-drug latency)]×100.
(§2) The data are expressed as the mean±S.E.M. Statistical analyses were performed with two-tailed Student's t-test for comparison of two groups, and by a one-way analysis of variance followed by a Bonferroni multiple comparison test for comparison of more than two groups. A P value <0.05 was considered statistically significant.

[2] = Gastrointestinal transit (charcoal meal), constipating effect after oral administration; assay type: in vivo; conditions: mouse, in vivo; oral administration, mice; (95% confidence limits); read-out: ED50 inhibitory effect on gastrointestinal transit (GIT), constipating ED50
Description: (§3) The inhibition of gastrointestinal transit (%) was calculated as: Inhibition of gastrointestinal transit (%)=[(saline or vehicle GIT−drug GIT)/(saline or vehicle GIT)]×100. Each value represents mean±S.E.M. of 7 or 8 mice.
(§4) Mice were fasted, with water available ad libitum, for 18 h before the experiments. […] Thirty minutes after administration of the charcoal meal, the animal was sacrificed by cervical dislocation, and the small intestine from the pylorus to the ileocecum was carefully removed. Both the length of the small intestine from the pylorus to the ileocecum and the farthest distance to which the charcoal meal had traveled were measured. For each animal, the gastrointestinal transit (GIT) was calculated as the percentage of distance traveled by the charcoal meal relative to the total length of the small intestine. The inhibition of gastrointestinal transit (%) was calculated as: Inhibition of gastrointestinal transit (%)=[(saline or vehicle GIT−drug GIT)/(saline or vehicle GIT)]×100.
as §2

mice [3] = assay: as above; assay type: in vivo; conditions: oral, GIT ED50 versus tail-flick ED50
Description: as §3, §4, §2

mice [4] = assay: Effects of opioid receptor antagonists on analgesia induced by s.c. administration, mouse tail-flick test; assay type: in vivo; conditions: s.c. compound; for effect of naloxone on analgesic effect: non-selective opioid antagonist naloxone, data not shown; for effect of naltrindole on analgesic effect: δ-opioid receptor selective antagonist NTI 3 mg/kg; for effect of nor-binaltorphimine on analgesic effect: κ-opioid receptor selective antagonist norBNI 20 mg/kg; for effect of β-funaltrexamine on analgesic effect: μ-opioid receptor selective antagonist β-FNA 40 mg/kg
Description: The analgesic effects were determined in the mouse tail-flick test after s.c. administration of the following antagonists: β-funaltrexamine (β-FNA, 40 mg/kg), naltrindole (NTI, 3 mg/kg), and nor-binaltorphimine (norBNI, 20 mg/kg). Measurements were performed 15 min after s.c. administration of compound 11, compound 26 and compound 27. […] Each value represents mean±S.E.M. of 8 or 9 mice.
as §1

[5] = read-out: Inhibitory activity (%)
[6] = read-out: Maximum inhibition (%)

C[C@@]12Nc3ccccc3[C@]1(C)OCCO2
melting point: 79 to 81 °C

c1ccc2c(c1)N[C@]13CCCC[C@]21OCCO3
melting point: 156 to 157 °C

CC[C@@H]1CN2CC[C@@]3(O)C(=Nc4cccc(OC)c43)[C@@H]2C[C@@H]1/C(=C\OC)C(=O)OC [Compound 1, 7-hydroxymitragynine, reference compound]
Emax (guinea pig ileum; [5]): 104% | Emax (guinea pig ileum; [6]): 90.8 ± 3.4% | EC50 (guinea pig ileum): 16.6 nM | Relative Potency (%) (guinea pig ileum): 426% | ED50 (mice [1]): 4.43 mg/kg | times more potent analgesic effect than morphine (mice [1]): 14 times | ED50 [2]: 7.5 mg/kg

CC[C@@H]1CN2CCc3c([nH]c4cccc(OC)c34)[C@@H]2C[C@@H]1/C(=C\OC)C(=O)OC [Compound 2, Mitragynine, reference compound]
Emax (guinea pig ileum; [5]): 83% | Emax (guinea pig ileum; [6]): 72 ± 5% | EC50 (guinea pig ileum): 316 nM | Relative Potency (%) (guinea pig ileum): 22%

CC[C@@H]1CN2CC[C@@]34OCCO[C@@]3(Nc3cccc(OC)c34)[C@@H]2C[C@@H]1/C(=C\OC)C(=O)OC [Compound 3]
Emax (guinea pig ileum; [5]): 40% | Emax (guinea pig ileum; [6]): 35 ± 11% | EC50 (guinea pig ileum): 20 nM | Relative Potency (%) (guinea pig ileum): 354%

CC[C@@H]1CN2CC[C@@]34OCCO[C@@]3(Nc3ccc(F)c(OC)c34)[C@@H]2C[C@@H]1/C(=C\OC)C(=O)OC [Compound 11]
Emax (guinea pig ileum; [5]): 96% | Emax (guinea pig ileum; [6]): 83.4 ± 3.2% | EC50 (guinea pig ileum): 3.98 nM | Relative Potency (%) (guinea pig ileum): 1778% | ED50 (mice [1]): 2.84 mg/kg | times more potent analgesic effect than morphine (mice [1]): 22 times | ED50 [2]: 11.1 mg/kg | constipating ED50 times larger than analgesic ED50 (mice [3]): 4 times | effect of naloxone on analgesic effect (mice [4]): completely blocked | effect of naltrindole on analgesic effect (mice [4]): ineffective | effect of nor-binaltorphimine on analgesic effect (mice [4]): markedly inhibited | effect of β-funaltrexamine on analgesic effect (mice [4]): markedly inhibited

CC[C@@H]1CN2CC[C@@]34OCCO[C@@]3(Nc3ccc(Cl)c(OC)c34)[C@@H]2C[C@@H]1/C(=C\OC)C(=O)OC [Compound 12a]
Relative Potency (%) (guinea pig ileum): 288% | Inhibitory activity (%) (guinea pig ileum): 55% | pD2 value (−log M) (guinea pig ileum): 7.61 ± 0.17 −log M | Maximum inhibition (%) (guinea pig ileum): 48.1 ± 9.3%

CC[C@@H]1CN2CC[C@@]34OCCO[C@@]3(Nc3ccc([N+](=O)[O-])c(OC)c34)[C@@H]2C[C@@H]1/C(=C\OC)C(=O)OC [Compound 14a]
Relative Potency (%) (guinea pig ileum): 537% | Inhibitory activity (%) (guinea pig ileum): 75% | pD2 value (−log M) (guinea pig ileum): 7.88 ± 0.18 −log M | Maximum inhibition (%) (guinea pig ileum): 65.0 ± 4.3%

CC[C@@H]1CN2CC[C@@]3(O)C(=Nc4ccc(F)c(OC)c43)[C@@H]2C[C@@H]1/C(=C\OC)C(=O)OC [Compound 22, 7-Hydroxy-10-fluoromitragynine]
Emax (guinea pig ileum; [5]): 95% | Emax (guinea pig ileum; [6]): 82.5 ± 1.8% | EC50 (guinea pig ileum): 13.5 nM | Relative Potency (%) (guinea pig ileum): 524%

CC[C@@H]1CN2CC[C@@]3(O)C(=Nc4ccc(Cl)c(OC)c43)[C@@H]2C[C@@H]1/C(=C\OC)C(=O)OC [Compound 23, 7-Hydroxy-10-chloromitragynine]
Emax (guinea pig ileum; [5]): 86% | Emax (guinea pig ileum; [6]): 74.8 ± 3% | EC50 (guinea pig ileum): 29.5 nM | Relative Potency (%) (guinea pig ileum): 239%

CC[C@@H]1CN2CC[C@@]3(O)C(=Nc4ccc(Br)c(OC)c43)[C@@H]2C[C@@H]1/C(=C\OC)C(=O)OC [Compound 24, 7-Hydroxy-10-bromomitragynine]
Emax (guinea pig ileum; [5]): 71% | Emax (guinea pig ileum; [6]): 61.7 ± 6.2% | EC50 (guinea pig ileum): 35.5 nM | Relative Potency (%) (guinea pig ileum): 199%

CCC1CN2CCC3(O)c4c(ccc(F)c4OC)NC3C2CC1C(=COC)C(=O)OC (centres unmarked) [Compound 27]
Relative Potency (%) (guinea pig ileum): 4571% | Inhibitory activity (%) (guinea pig ileum): 102% | pD2 value (−log M) (guinea pig ileum): 8.81 ± 0.09 −log M | Maximum inhibition (%) (guinea pig ileum): 89.0 ± 2.3% | ED50 analgesic effect (tail-flick) (mice [1]): 0.263 (0.165-0.420) mg/kg | ED50 analgesic effect (tail-flick) (mice [1]; listed as compound 27): 0.26 mg/kg | times more potent analgesic effect than morphine (mice [1]): 240 times | effect of naloxone on analgesic effect (mice [4]): completely blocked | effect of naltrindole on analgesic effect (mice [4]): moderately inhibited | effect of nor-binaltorphimine on analgesic effect (mice [4]): had no effect | effect of β-funaltrexamine on analgesic effect (mice [4]): markedly inhibited

CN1CC[C@]23c4c5ccc(O)c4O[C@H]2[C@@H](O)C=C[C@H]3[C@H]1C5 [Morphine, reference compound]
Emax (guinea pig ileum; [5]): 100% | Emax (guinea pig ileum; [6]): 87.2 ± 1.8% | ED50 (mice [1]): 63 mg/kg | ED50 [2]: 11.7 mg/kg | constipating ED50 times smaller than analgesic ED50 (mice [3]): 5 times
